Patent US11679114B2, “Progestogen-only oral contraception” (Navad Life Sciences Pte, priority 2021, dated 2023)
Several values for one entry are separate records, joined by “and”; a condition that tells them apart may be missing. Equal entries are not always repeated.

Tests used:
Assay type in all cases: in vivo, human
healthy, cyclic women [1] = test: Diameter of the largest follicle-like structure (FLS) by transvaginal ultrasonography
Method: (§1) The tablets prepared in Example 1 were tested in a single-center, open-label, adaptive design study to evaluate the influence on hormonal and ovarian function and vaginal bleeding pattern of different higher dosages of LNG administered once daily for 28 days over two consecutive treatment cycles in healthy, cyclic women.
(§2) Subjects started study medication intake on the first day of menstrual bleeding after the pre-treatment cycle. One tablet was taken orally, around the same time every morning, during 56 consecutive days. Study visits were planned every three (±1) days from treatment day 3 (±1) until 27 (±1) and from day 31 (±1) until day 55 (±1). At each visit the diameter of the largest follicle-like structure (FLS) and serum follicle-stimulating hormone (FSH), luteinizing hormone (LH), estradiol (E2) and P concentrations were measured.
(§3) If ovulation was observed during treatment, the subsequent luteal phase was evaluated using the Landgren criterion, i.e. the luteal phase was considered adequate when P concentrations were >16 nmol/L during at least 5 days (Landgren et al., “Hormonal effects of the 300 μg norethisterone (NET) minipill. 1. Daily steroid levels in 43 subjects during a pretreatment cycle and during the second month of NET administration,” Contraception 1980; 21: pp. 87-113). TVUS measurements of the diameter of the largest FLS (mean of two directions) were performed using a Voluson E8 Expert device (GE Medical Systems). Serum FSH, LH, E2, P and SHBG concentrations were determined by validated chemiluminescent microparticle immunoassays (Abbott, Longford, Ireland). All pharmacodynamic parameters were evaluated descriptively.

healthy, cyclic women [2] = test: Serum FSH, LH, estradiol (E2) and progesterone (P) concentrations during treatment
Method: as §1, §2, §3

healthy, cyclic women [3] = test: Vaginal bleeding pattern (daily record); details: excluding the first 7 treatment days
Method: as §1
Throughout the study, subjects kept a daily record of vaginal bleeding. During the treatment period, they also documented the time of study medication intake.

healthy, cyclic women [4] = test: Adverse events and tolerability
Method: At every visit, the subjects were questioned for adverse events and use of concomitant medication. Safety laboratory and pregnancy tests were performed at regular intervals during the study. Physical examinations were performed at screening and end of study.

healthy, cyclic women [5] = test: Return of ovulation after the last treatment day; details: for Ovulation observed, average days after last treatment: post-treatment period
Method: After the last treatment day, assessments were continued every three (±1) days until ovulation was observed, followed by P measurements 2 (±1) and, if necessary, 4 (±1) days after ovulation. An end-of-study examination was performed 6 (±1) days after ovulation, or on day 30 (±1) in case no ovulation had been observed until then.

[6] = LNG 0.095 mg per day, BMI < 30 kg/m^2, entire treatment period
[7] = LNG 0.095 mg per day, BMI ≥ 30 kg/m^2, entire treatment period
[8] = LNG 0.095 mg per day, entire treatment period
[9] = LNG 0.095 mg per day, treatment period 1
[10] = LNG 0.095 mg per day, treatment period 2
[11] = LNG 0.115 mg per day, BMI < 30 kg/m^2, entire treatment period
[12] = LNG 0.115 mg per day, BMI ≥ 30 kg/m^2, entire treatment period
[13] = LNG 0.115 mg per day, entire treatment period
[14] = LNG 0.115 mg per day, treatment period 1
[15] = LNG 0.115 mg per day, treatment period 2
[16] = LNG 0.135 mg per day, BMI < 30 kg/m^2, entire treatment period
[17] = LNG 0.135 mg per day, BMI ≥ 30 kg/m^2, entire treatment period
[18] = LNG 0.135 mg per day, entire treatment period
[19] = LNG 0.135 mg per day, treatment period 1
[20] = LNG 0.135 mg per day, treatment period 2

Number of days with bleeding or spotting during treatment, mean (±SD) (healthy, cyclic women [3]; LNG 0.095 mg per day): 12.3 (±8.6) days | Number of days with bleeding or spotting during treatment, median (healthy, cyclic women [3]; LNG 0.095 mg per day): 11.5 days | Number of days with bleeding or spotting during treatment, mean (±SD) (healthy, cyclic women [3]; LNG 0.115 mg per day): 14.5 (±9.4) days | Number of days with bleeding or spotting during treatment, median (healthy, cyclic women [3]; LNG 0.115 mg per day): 14.5 days | Number of days with bleeding or spotting during treatment, mean (±SD) (healthy, cyclic women [3]; LNG 0.135 mg per day): 16.0 (±11.5) days | Number of days with bleeding or spotting during treatment, median (healthy, cyclic women [3]; LNG 0.135 mg per day): 13.0 days
SMILES: C#C[C@]1(O)CC[C@H]2[C@@H]3CCC4=CC(=O)CC[C@@H]4[C@H]3CC[C@@]21CC (racemic) [LNG, levonorgestrel]
Maximum FLS diameter, Mean ± SD (healthy, cyclic women [1]; [6]): 22.5 ± 8.2 mm | Maximum FLS diameter, Mean ± SD (healthy, cyclic women [1]; [7]): 20.6 ± 6.9 mm | Maximum FLS diameter, Mean ± SD (healthy, cyclic women [1]; [8]): 22.1 ± 7.9 mm | Maximum FLS diameter, Median (healthy, cyclic women [1]; [8]): 22.5 mm | Maximum FLS diameter, Mean ± SD (healthy, cyclic women [1]; [9]): 20.0 ± 8.6 mm | Maximum FLS diameter, Median (healthy, cyclic women [1]; [9]): 20.6 mm | Maximum FLS diameter, Mean ± SD (healthy, cyclic women [1]; [10]): 20.5 ± 7.5 mm | Maximum FLS diameter, Median (healthy, cyclic women [1]; [10]): 20.2 mm | Maximum FLS diameter, Mean ± SD (healthy, cyclic women [1]; [11]): 19.8 ± 7.5 mm | Maximum FLS diameter, Mean ± SD (healthy, cyclic women [1]; [12]): 27.9 ± 4.4 mm | Maximum FLS diameter, Mean ± SD (healthy, cyclic women [1]; [13]): 21.4 ± 7.7 mm | Maximum FLS diameter, Median (healthy, cyclic women [1]; [13]): 20.8 mm | Maximum FLS diameter, Mean ± SD (healthy, cyclic women [1]; [14]): 20.4 ± 7.9 mm | Maximum FLS diameter, Median (healthy, cyclic women [1]; [14]): 20.3 mm | Maximum FLS diameter, Mean ± SD (healthy, cyclic women [1]; [15]): 19.9 ± 7.5 mm | Maximum FLS diameter, Median (healthy, cyclic women [1]; [15]): 20.8 mm | Maximum FLS diameter, Mean ± SD (healthy, cyclic women [1]; [16]): 18.4 ± 5.0 mm | Maximum FLS diameter, Mean ± SD (healthy, cyclic women [1]; [17]): 19.0 ± 7.1 mm | Maximum FLS diameter, Mean ± SD (healthy, cyclic women [1]; [18]): 18.5 ± 5.3 mm | Maximum FLS diameter, Median (healthy, cyclic women [1]; [18]): 18.1 mm | FLS diameter in one subject with possible abnormal ovulation (healthy, cyclic women [1]; LNG 0.135 mg per day, one subject (BMI 20.4 kg/m^2), treatment day 3): 12.3 mm | Maximum FLS diameter, Mean ± SD (healthy, cyclic women [1]; [19]): 16.6 ± 5.7 mm | Maximum FLS diameter, Median (healthy, cyclic women [1]; [19]): 13.9 mm | Maximum FLS diameter, Mean ± SD (healthy, cyclic women [1]; [20]): 17.4 ± 5.0 mm | Maximum FLS diameter, Median (healthy, cyclic women [1]; [20]): 16.8 mm | LH peak in one of the ovulating subjects (healthy, cyclic women [2]; LNG 0.095 mg per day): 68.0 IU/L | Maximum E2 concentration, Mean ± SD (healthy, cyclic women [2]; [6]): 705 ± 537 pmol/L | Mean E2 concentration, Mean ± SD (healthy, cyclic women [2]; [6]): 253 ± 140 pmol/L | Maximum E2 concentration, Mean ± SD (healthy, cyclic women [2]; [7]): 484 ± 277 pmol/L | Mean E2 concentration, Mean ± SD (healthy, cyclic women [2]; [7]): 190 ± 72 pmol/L | Maximum E2 concentration, Mean ± SD (healthy, cyclic women [2]; [8]): 660 ± 500 pmol/L | Maximum E2 concentration, Median (healthy, cyclic women [2]; [8]): 580 pmol/L | Mean E2 concentration, Mean ± SD (healthy, cyclic women [2]; [8]): 241 pmol/L and 241 ± 130 pmol/L | Mean E2 concentration, Median (healthy, cyclic women [2]; [8]): 204 pmol/L | Maximum E2 concentration, Mean ± SD (healthy, cyclic women [2]; [9]): 595 ± 495 pmol/L | Maximum E2 concentration, Median (healthy, cyclic women [2]; [9]): 362 pmol/L | Mean E2 concentration, Mean ± SD (healthy, cyclic women [2]; [9]): 289 ± 195 pmol/L | Mean E2 concentration, Median (healthy, cyclic women [2]; [9]): 231 pmol/L | Maximum E2 concentration, Mean ± SD (healthy, cyclic women [2]; [10]): 384 ± 304 pmol/L | Maximum E2 concentration, Median (healthy, cyclic women [2]; [10]): 224 pmol/L | Mean E2 concentration, Mean ± SD (healthy, cyclic women [2]; [10]): 186 ± 97 pmol/L | Mean E2 concentration, Median (healthy, cyclic women [2]; [10]): 144 pmol/L | Maximum E2 concentration, Mean ± SD (healthy, cyclic women [2]; [11]): 611 ± 623 pmol/L | Mean E2 concentration, Mean ± SD (healthy, cyclic women [2]; [11]): 213 ± 160 pmol/L | Maximum E2 concentration, Mean ± SD (healthy, cyclic women [2]; [12]): 607 ± 116 pmol/L | Mean E2 concentration, Mean ± SD (healthy, cyclic women [2]; [12]): 242 ± 66 pmol/L | Maximum E2 concentration, Mean ± SD (healthy, cyclic women [2]; [13]): 610 ± 559 pmol/L | Maximum E2 concentration, Median (healthy, cyclic women [2]; [13]): 511 pmol/L | Mean E2 concentration, Mean ± SD (healthy, cyclic women [2]; [13]): 219 pmol/L and 219 ± 146 pmol/L | Mean E2 concentration, Median (healthy, cyclic women [2]; [13]): 186 pmol/L | Maximum E2 concentration, Mean ± SD (healthy, cyclic women [2]; [14]): 563 ± 551 pmol/L | Maximum E2 concentration, Median (healthy, cyclic women [2]; [14]): 481 pmol/L | Mean E2 concentration, Mean ± SD (healthy, cyclic women [2]; [14]): 269 ± 217 pmol/L | Mean E2 concentration, Median (healthy, cyclic women [2]; [14]): 244 pmol/L | Maximum E2 concentration, Mean ± SD (healthy, cyclic women [2]; [15]): 367 ± 278 pmol/L | Maximum E2 concentration, Median (healthy, cyclic women [2]; [15]): 215 pmol/L | Mean E2 concentration, Mean ± SD (healthy, cyclic women [2]; [15]): 170 ± 88 pmol/L | Mean E2 concentration, Median (healthy, cyclic women [2]; [15]): 146 pmol/L | Maximum E2 concentration, Mean ± SD (healthy, cyclic women [2]; [16]): 415 ± 244 pmol/L | Mean E2 concentration, Mean ± SD (healthy, cyclic women [2]; [16]): 178 ± 72 pmol/L | Maximum E2 concentration, Mean ± SD (healthy, cyclic women [2]; [17]): 421 ± 332 pmol/L | Mean E2 concentration, Mean ± SD (healthy, cyclic women [2]; [17]): 190 ± 87 pmol/L | Maximum E2 concentration, Mean ± SD (healthy, cyclic women [2]; [18]): 416 ± 256 pmol/L | Maximum E2 concentration, Median (healthy, cyclic women [2]; [18]): 279 pmol/L | Mean E2 concentration, Mean ± SD (healthy, cyclic women [2]; [18]): 180 pmol/L and 180 ± 73 pmol/L | Mean E2 concentration, Median (healthy, cyclic women [2]; [18]): 144 pmol/L | Maximum E2 concentration, Mean ± SD (healthy, cyclic women [2]; [19]): 369 ± 245 pmol/L | Maximum E2 concentration, Median (healthy, cyclic women [2]; [19]): 239 pmol/L | Mean E2 concentration, Mean ± SD (healthy, cyclic women [2]; [19]): 198 ± 100 pmol/L | Mean E2 concentration, Median (healthy, cyclic women [2]; [19]): 156 pmol/L | Maximum E2 concentration, Mean ± SD (healthy, cyclic women [2]; [20]): 302 ± 184 pmol/L | Maximum E2 concentration, Median (healthy, cyclic women [2]; [20]): 242 pmol/L | Mean E2 concentration, Mean ± SD (healthy, cyclic women [2]; [20]): 162 ± 62 pmol/L | Mean E2 concentration, Median (healthy, cyclic women [2]; [20]): 148 pmol/L | Subjects with mean E2 concentrations ≥110 pmol/L (30 pg/mL) (healthy, cyclic women [2]; all dosages (0.095, 0.115, 0.135 mg per day)): 80-90% | Mean E2 concentrations in all subjects (healthy, cyclic women [2]; all dosages, except in one subject in the 0.115 mg group, 73.4 pmol/L = 20 pg/mL): > 73.4 pmol/L | Individual P concentrations during treatment (healthy, cyclic women [2]; all groups, except 2 ovulating subjects (0.095 mg), the subject with abnormal ovulation (0.135 mg) and one other subject): below 5 nmol/L | Individual LH concentrations (healthy, cyclic women [2]; all groups, except for an LH peak in one ovulating subject in the 0.095 mg group): below 12.1 IU/L | Mean E2 concentrations in all LNG treatment groups (healthy, cyclic women [2]; all treatment groups, 110 pmol/L (30 pg/mL) = lower limit assumed not to lead to accelerated bone loss): above 110 pmol/L | Single P concentration in another subject (healthy, cyclic women [2]; first treatment visit, probably a residue from the pre-treatment cycle, dose group not stated): 5.85 nmol/L | n acne events, possibly IMP related (healthy, cyclic women [4]; 0.095 mg LNG, n subjects 30): 3 | n acne events, possibly IMP related (healthy, cyclic women [4]; 0.115 mg LNG, n subjects 29): 4 | n acne events, possibly IMP related (healthy, cyclic women [4]; 0.135 mg LNG, n subjects 29): 4 | Tolerability of the study medication (healthy, cyclic women [4]; LNG 0.095, 0.115 or 0.135 mg per day for 56 days): well tolerated | Ovulation observed, average days after last treatment (healthy, cyclic women [5]; LNG 0.095 mg per day for 56 days): 15.5 days | Ovulation observed, average days after last treatment (healthy, cyclic women [5]; LNG 0.115 mg per day for 56 days): 14.1 days | Ovulation observed, average days after last treatment (healthy, cyclic women [5]; LNG 0.135 mg per day for 56 days): 12.8 days | P concentrations after post-treatment ovulation (healthy, cyclic women [5]; majority of subjects, within the 30-day post-treatment period): ≥ 16 nmol/L
